The subject of one assay is cocaine taking. The following applies: literature data; cited from earlier work.
The next assay relates to cocaine reward. The following applies: literature data, cited from earlier work.
In assay [1] the test system is cocaine locomotor activation. The following applies: literature data, cited from earlier work.
The target of assay [2] is chemokine receptors CCR2/CCR5. Type of assay: biochemical. The following applies: inhibition of chemokine receptors CCR2/CCR5; read-out: Potency EC50. The source says: Table 1 illustrates the potencies of several peptides of the invention to inhibit chemokine receptors CCR2/CCR5. These receptor-active peptides (Receptides, abbreviated as RAP's) represent a novel, safe and non-addictive pharmacological intervention for substance abuse disorders by normalizing the neurobiology of addiction to suppress drug-seeking behaviors, reduce psychostimulant (cocaine, methamphetamine) activation and locomotion, and inhibit consumption of alcohol, other drugs of abuse and substance abuse in general. They may also treat depression and anxiety as those commonly occur in substance abuse. […] Decades-old treatments (methadone, buprenorphine etc.) require extended use, suffer from high recidivism, are only partly effective and are clearly inadequate. New treatments with no abuse liability, that blunt drug-seeking, dependence, and facilitate recovery and withdrawal are a priority need.

The subject of assay [3] is streptozotocin (STZ) induced diabetic rats. The method, then:
Rats were fasted overnight and received a single intraperitoneal injection of streptozotocin (60 mg/kg, Sigma-Aldrich) in citrate buffer (pH 4.5) to induce type I diabetes. The induction of diabetes was confirmed 72 h after streptozotocin injection by measurement of blood glucose levels using Contour® blood glucose diagnostic kit (Bayer HealthCare, Canada). Body weight and blood glucose levels were measured before and 3 days after streptozotocin injection, once a week for three weeks after diabetes induction. Only rats having blood glucose concentration consistently higher than 300 mg/dl were used for the present study. […]
(§1) Tactile allodynia Mechanical sensitivity was assessed using calibrated von Frey hairs (7). Animals were placed in Plexiglas boxes on an elevated metal mesh floor and allowed 60 min for habituation before testing. A series of von Frey filaments with logarithmically incrementing stiffness was applied perpendicular to the mid-plantar region of the hind paw. The 50% paw withdrawal threshold was determined using Dixon's up-down method. Withdrawal thresholds of both paws were averaged as one single value per animal. Assessment on the effects of RAP103 on mechanical and cold allodynia was performed between 2-4 hours following the drug administration. […] All data were presented as means±SEM. Statistical analysis was performed by two-way ANOVA followed by Bonferroni post-tests. The criterion for statistical significance was P<0.05.

Assay [4] deals with cocaine induced locomotor behavior. The following applies: rats, 0.001, 0.01, 0.03 mg/kg, p.o., 30 min before cocaine 10 mgs/Kg. As to the method:
Locomotor activity (ambulation+stereotypy) induced by cocaine and the effect of RAP-103 was assessed using a Digiscan DMicro system. Following a 60-min habituation in activity chambers, rats were pretreated with RAP-103 (0.03, 0.01, 0.001 mgs/Kg) or vehicle 30 min before cocaine (10 mgs/Kg) or vehicle and activity was measured for 120 min. Differences between individual groups were determined with a Bonferroni post-hoc test. Statistical significance was set at p<0.05.

The subject of a further assay is MOR-dependent rats. The following applies: 0.5 mg/kg, naloxone 3 mg/kg SC on day 7, quantified for 60 min. The method, then: Opioid tolerance during chronic exposure requires increasing opioid doses to maintain analgesic efficacy. Physical dependence also develops during chronic opioid exposure and, upon discontinuation of opioid intake, presents as a withdrawal syndrome that triggers opioid relapse. We tested the effects of RAP-103 (0.5 mg/kg) on naloxone-precipitated withdrawal signs in MOR-dependent rats. To induce physical dependence we implanted opioid (heroine) containing pellets. On day 7 rats received naloxone (3 mg/kg, SC) with or without added RAP-103 and the withdrawal signs of wet dog shakes and eye blinking were quantified for 60 min.

A further assay concerns CCL2, CCL3. The source says:
Because opioids are used in the management of pain conditions that contribute to OUD, we determined the efficacy of a small peptide chemokine receptor antagonist RAP-103 (all-D-TTNYT, SEQ ID #1, Table 1), sometimes called RAP-103 or R103) to reverse opioid receptor analgesic tolerance and block pain as a test of its ability to block-drug seeking behaviors. Painful diabetic neuropathy (PDN) is a common complication of diabetes which adversely affects patients' daily life, often involves opioid use, which creates an addiction risk. […] To test the hypothesis, we first used behavioral and molecular/cellular approaches to explore chronic pain development and inflammatory reaction in Streptozotocin (STZ) induced diabetic rats. […] CCL2 and CCL3 are two chemokines well known in mediating immune cell trafficking and immune response in the context of neuropathic pain.
(§2) Rats were fasted overnight and received a single intraperitoneal injection of streptozotocin (60 mg/kg, Sigma-Aldrich) in citrate buffer (pH 4.5) to induce type I diabetes. The induction of diabetes was confirmed 72 h after streptozotocin injection by measurement of blood glucose levels using Contour® blood glucose diagnostic kit (Bayer HealthCare, Canada). Body weight and blood glucose levels were measured before and 3 days after streptozotocin injection, once a week for three weeks after diabetes induction. Only rats having blood glucose concentration consistently higher than 300 mg/dl were used for the present study.

For assay [5], the system named is opioid self-administration. The following applies: rats, MOR 0.25 mg/kg/inf. The source says: Rats were surgically prepared to have indwelling catheters prior to self-administration testing. To begin each session, house lights were turned on and two retractable levers extended into the chamber. […] A 20-s timeout period will follow each infusion to limit possibility of overdose. […] The dependent variable measured will be the number of infusions earned by the end of the session and defined as the breakpoint. Total cumulative responses made by the rat on the active lever during each session will also be recorded. Once rats reach criteria for stable PR responding, which is defined as 3 consecutive days of responding without upward or downward variance (<20% change from mean number of reinforcers earned for 3 consecutive days), R103 (0.02, 0.1, and 0.5 mg/kg) will be administered 15 min before daily SA sessions to assess effects on breaking point and to obtain dose-effect data for R103. A repeated-measures 2-way ANOVA (R103 treatment, sex) between-subjects design followed by a Bonferroni test was used.

In assay [6] the test system is STZ induced diabetic rats. The following applies: oral administration. The method, then: as §2
The treatment lasted for 8 days Note, n=5 for H2O and n=7 for RAP-103/each dose.
as §1, with “Statistical analysis was performed by two-way ANOVA followed by Bonferroni post-tests. The criterion for statistical significance was P<0.05.” left out

Where [7] appears, read: STZ diabetic rats, oral administration for 7 days.

Read-outs that look alike come from different tables or passages of the source.

Regarding `c1cc(CN2CCCNCCNCCCNCC2)ccc1CN1CCCNCCNCCCNCC1` [AMD3100, Plerixafor], the “cocaine taking in rat self-administration assays” value with cocaine taking is “inhibits”. Besides, the results for the “cocaine reward / conditioned place preference (CPP)” value with cocaine reward and with cocaine reward (listed as AMD 3100) were “inhibits cocaine reward” and “inhibits conditioned place preference (CPP)”, respectively. In assay [1] (5, 10 mg/kg pretreatment), the “locomotor activation produced by an acute cocaine injection” value is given as “reduced locomotor activation”. In addition, in assay [1], the “locomotor activation produced by cocaine” value is reported as “inhibits”.
For the compound `COc1ccc(C2(O)CCC(N3CC[C@@H](NC(=O)CNC(=O)c4cccc(C(F)(F)F)c4)C3)CC2)cn1` (some centres unmarked) [INCB 3284], the “cocaine reward / conditioned place preference (CPP)” value in the assay with cocaine reward is listed as “prevented psychostimulant-induced CPP”.
Maraviroc: the “cocaine reward / conditioned place preference (CPP)” value with cocaine reward is reported as “reduces rewarding”. Further, in [1], the “locomotor activation produced by cocaine” value was “reduces”.
The term EC50 denotes the concentration giving half of the maximal effect. As for SSTYR [SEQ ID No.: 2], the EC50 in assay [2] is 1 pM.
The same measure, in the same setting: with STNYT [SEQ ID No.: 3] the figure was 3 pM.
Take TTNYT [SEQ ID No.: 1, all-D-TTNYT]: the neuropathic pain result in assay [3] (setting [7]) is “reduced neuropathic pain”. Moreover, in assay [3] (STZ induced diabetic rats, oral administration), the mechanical allodynia entry was “reversed mechanical allodynia”. Further, the established hypersensitivity result in assay [3] (STZ rats, 0.5-0.02 mg/Kg b.w., daily, for 7 days) is listed as “complete reversal of established hypersensitivity”. Further, the “cocaine induced locomotor behavior (locomotor activity counts)” value in [4] (listed as RAP103) is “inhibited psychostimulant cocaine induced locomotor behavior”; in assay [4] (listed as RAP-103) it was “blocks the locomotor inducing effects of cocaine”. The “naloxone precipitated withdrawal signs (wet dog shakes and eye blink)” value is “significantly inhibited naloxone precipitated withdrawal signs” with MOR-dependent rats (listed as RAP103) and “blocks naloxone-precipitated withdrawal signs” in the assay on MOR-dependent rats (listed as RAP-103). In the assay on CCL2, CCL3 (setting [7]), the “expression of chemokines and cytokines” value was “inhibited expression of chemokines and cytokines”. The “inflammation: CCL2 in the sciatic nerves” value with CCL2, CCL3 (STZ rats, 0.5 mg/kg, for 7 days, p.o., FIG. 3A) is “significantly inhibited inflammation”. Besides, the “inflammation: CCL3 in the sciatic nerves” value in the assay with CCL2, CCL3 (STZ rats, 0.5 mg/kg, for 7 days, p.o., FIG. 3B) is recorded as “significantly inhibited inflammation”. Moreover, the “opioid self-administration by lever press for drug infusions” value in assay [5] was “significantly inhibited opioid self-administration”. Besides, in [5] (R103 0.02, 0.1, and 0.5 mg/kg 15 min before sessions), the “motivation to work for reinforcer (self-administer an opioid), progressive-ratio” value is on record as “significantly reduced”. Also, the cold allodynia result in assay [6] is recorded as “reversed cold allodynia”.

The record behind these values is US12257283B2 (priority 2019, dated 2025).
